In patent US20110039779A1, “IGF-1R BINDING PROTEINS AND ANTAGONISTS” (priority 2007, published 2011):
“And” between values parts separate entries of the source, which are not always exact repeats. Equal entries are not always repeated. Where two headings read alike, the source gives them in different places.

What was measured:
[1] = tested on: SW480 cells; assay type: cell-based
Experimental: For cell growth/density studies, a mitochondrial activity assay was used, as exemplified by the following. Cells (SW480, MCF-7S8) were propagated in complete medium (DME: F12, 10% FCS (SW 480) or 5% FCS (MCF-7S8, P/S)), trypsinized, and seeded in 96 well plates as 10,000 cells/well in medium with 0.5% FCS. All wells in the periphery were omitted and only filled with medium. […] All treatments are made in triplicates. […] Treatment was continued for 48 hours (SW480 cells) or 72 hours (MCF-7S8 cells) before quantification of the cell density. Media was exchanged each day. Media and peptides were diluted in DMSO. When measuring cell density, the volume of each well was adjusted to […] Pre-diluted WST-1 (1 ml+1.5 ml DME:F12) was added as 25 μL to each well including background samples. Three wells with media only served as background controls. The cells were incubated for 90 min protected against light in an incubator.

[2] = biological target: T1, purified HIGF-1R (Homo sapiens, UniProt P08069); assay: IGF-1R activation kinase assay; assay type: biochemical; conditions: FIG. 2
T1 construct: HIGF-1R was purified from a cell culture of BHK cells stably transfected with IGF-1R cDNA; made in house; host or cells: BHK cells stably transfected with IGF-1R cDNA
Experimental: For determining IGF-1R activation with test peptides, a kinase assay, generally using the following conditions was employed. A solution of each test peptide in kinase buffer (Hepes 100 mM (pH 8.0), MgCl2 8 mM, MnCl2 6 mM, Triton X100 0.1% v/v, BSA 0.2% w/v, 4 μg/ml IRS-1 peptide (Biotin-[…] in PBS+1 mg/ml)) was prepared. Samples were mixed in a microtiter plate in triplicate. 50 μl 2× kinase buffer was added into each well. […] Volume was adjusted to 88 μL, before addition of purified HIGF-1R (2 μl/well). Plates were shaken and incubated for 50 min. at room temperature (RT). DTT and 10 μl/well ATP were added and the wells incubated for 10 min. before stopping the reaction by adding 10 μl stop-buffer (50 mM EDTA (pH 8.0))/well and shaking. The samples were then transferred to streptavidin coated plates and incubated for 1 hour at RT. The coated plates were aspirated and washed 3 times with TBS-T. […] P-tyr Ab-PO (Phosphotyrosine-RC20:HRPO (1:1000) in TBS-T) was added and each plate was incubated for 30 min at RT. The plates were aspirated and washed 3 times with TBS-T. 100 μl TMB-One-substrate (Kem-En-Tec Diagnostics A/S—Denmark) (preheated to RT) was then added and the plates further incubated for approximately 20 min at RT. This reaction was stopped by adding 10 μl H2SO4 and the plates were read in an ELISA-reader at […] within 5-10 min. thereafter. […]

[3] = biological target: MCF7 cells (Homo sapiens, UniProt P08069); assay: antagonism assay in starved MCF7 cells, luminescence viability, 72 hrs; assay type: cell-based; conditions: Table 9
Experimental: Additional binding and antagonism assays using candidate peptides were performed. […] Cell viability was determined by luminescence assay and IC50 was calculated using standard techniques.

[4] = tested on: MAPK44; assay: downstream signaling in L6 cells: MAPK44; assay type: cell-based; conditions: 3 nM IGF-1, read-out: MAPK44, IC50 for down regulation of the stimulation to the basal level
Experimental: (§1) The tyrosine phosphorylation of IRS signaling (the 180 kDa band on a tyrosine phosphor Western blot) as well as activation of effectors MAPK 44 and 42 and PKB were analyzed by using antibodies specific for their active forms using methods substantially similar to those described in Example 14 of the '246 PCT application.
(§2) The effect of select peptides on downstream signaling (MAPK44, MAPK42, PKB/Akt, IRS-1, and IGF-1R) was also measured by studying the signaling in L6 cells predominantly expressing IGF-1R and very limited insulin receptors. […] The antagonistic effect of the peptides can be seen to affect all the downstream signaling from the IGF-1R.

[5] = tested on: MAPK42; assay: downstream signaling in L6 cells: MAPK42; assay type: cell-based; conditions: 3 nM IGF-1, read-out: MAPK42, IC50 for down regulation of the stimulation to the basal level
Experimental: as §1, §2

[6] = tested on: IGF-IR; assay: downstream signaling in L6 cells: IGF-IR; assay type: cell-based; conditions: 3 nM IGF-1, read-out: IGF-IR, IC50 for down regulation of the stimulation to the basal level
Experimental: as §1, §2

[7] = tested on: IRS-1; assay: downstream signaling: IRS-1 tyrosine phosphorylation; assay type: cell-based; conditions: L6 cells; 3 nM IGF-1; read-out: IRS-1, IC50 for down regulation of the stimulation to the basal level
Experimental: as §1, §2

[8] = first value of the cell: concentration needed to blunt the effect of 10 nM IGF-1, cells in words only = effect as reported, 48 hours
[9] = read-out: IC50, inhibition of IGF-1 (10 nM)-induced proliferation of SW480 cells, experiment 13262-015
[10] = read-out: IC50, inhibition of IGF-1 (10 nM)-induced proliferation of SW480 cells, experiment 13262-016
[11] = read-out: IC50 in SW480 (M) in presence of IGF-1/alone: in presence of IGF-1, first value of the cell: concentration needed to blunt the effect of 10 nM IGF-1, cells in words only = effect as reported, 48 hours
[12] = read-out: IC50 in SW480 (M) in presence of IGF-1/alone: alone, second value of the cell: concentration needed to inhibit basal level in 0.5% FCS

Chain of MCF7 cells (P08069 31-736): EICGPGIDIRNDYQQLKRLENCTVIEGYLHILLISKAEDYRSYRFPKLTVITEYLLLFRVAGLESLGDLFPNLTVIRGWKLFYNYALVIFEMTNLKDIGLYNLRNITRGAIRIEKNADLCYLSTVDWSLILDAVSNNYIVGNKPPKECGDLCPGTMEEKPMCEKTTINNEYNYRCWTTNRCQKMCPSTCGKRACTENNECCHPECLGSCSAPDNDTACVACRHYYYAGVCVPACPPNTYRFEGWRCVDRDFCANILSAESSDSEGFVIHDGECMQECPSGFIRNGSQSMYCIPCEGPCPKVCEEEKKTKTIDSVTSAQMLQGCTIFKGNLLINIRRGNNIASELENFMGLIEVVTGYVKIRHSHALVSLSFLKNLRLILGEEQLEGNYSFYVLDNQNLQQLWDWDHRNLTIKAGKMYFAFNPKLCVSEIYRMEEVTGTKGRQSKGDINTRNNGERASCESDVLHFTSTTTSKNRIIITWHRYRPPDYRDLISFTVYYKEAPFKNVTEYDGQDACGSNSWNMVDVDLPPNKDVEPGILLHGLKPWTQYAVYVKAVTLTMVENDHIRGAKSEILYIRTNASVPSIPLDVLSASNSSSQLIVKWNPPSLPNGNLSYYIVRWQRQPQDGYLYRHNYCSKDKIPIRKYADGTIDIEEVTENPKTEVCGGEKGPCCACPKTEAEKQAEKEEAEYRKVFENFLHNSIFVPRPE
T1 sequence (P08069 31-736 limits assumed): as the sequence (P08069 31-736) above
T1 sequence (P08069 741-1367 limits assumed): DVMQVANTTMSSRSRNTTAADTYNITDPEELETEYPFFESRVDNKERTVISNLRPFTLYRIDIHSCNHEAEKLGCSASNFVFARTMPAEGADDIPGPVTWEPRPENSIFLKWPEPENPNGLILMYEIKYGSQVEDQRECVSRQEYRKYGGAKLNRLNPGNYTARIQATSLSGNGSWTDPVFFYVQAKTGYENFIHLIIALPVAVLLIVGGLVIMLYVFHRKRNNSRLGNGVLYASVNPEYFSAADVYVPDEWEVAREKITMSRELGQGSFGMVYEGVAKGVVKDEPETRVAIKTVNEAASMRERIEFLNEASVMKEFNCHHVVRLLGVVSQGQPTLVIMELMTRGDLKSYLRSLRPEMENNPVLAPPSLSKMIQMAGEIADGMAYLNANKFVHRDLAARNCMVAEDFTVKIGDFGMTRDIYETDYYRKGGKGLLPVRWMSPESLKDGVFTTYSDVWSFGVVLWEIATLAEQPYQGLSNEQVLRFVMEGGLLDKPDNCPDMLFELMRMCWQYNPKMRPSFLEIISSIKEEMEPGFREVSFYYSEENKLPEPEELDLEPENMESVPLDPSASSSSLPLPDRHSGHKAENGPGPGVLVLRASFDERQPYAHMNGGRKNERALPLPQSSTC

Molecule: CC[C@H](C)[C@H](NC(=O)[C@H](CS)NC(=O)[C@H](CCCNC(=N)N)NC(=O)[C@H](CCCNC(=N)N)NC(=O)[C@H](CCCNC(=N)N)NC(=O)[C@H](Cc1c[nH]c2ccccc12)NC(=O)CNC(=O)[C@H](Cc1ccccc1)NC(=O)[C@H](CO)NC(=O)[C@@H]1CCCN1C(=O)[C@@H](NC(=O)CNC(=O)[C@H](CC(C)C)NC(=O)[C@H](CO)NC(=O)[C@H](CC(C)C)NC(=O)[C@H](CC(=O)O)NC(=O)[C@H](CC(C)C)NC(=O)[C@H](CC(C)C)NC(=O)[C@H](CS)NC(=O)CNC(=O)[C@H](Cc1ccc(O)cc1)NC(=O)[C@H](Cc1ccccc1)NC(=O)[C@@H]1CCC(=O)N1)C(C)C)C(=O)N[C@H](C(=O)N[C@@H](C)C(=O)O)[C@@H](C)O [Peptide F138P]
- IC50 [1]: 5e-07 M
- inhibition of basal growth of SW480, doses ([1]; without IGF-1): > 100 nM

Molecule: Ac-ESDVWAQPQRRNDWPGYHWLSR [Peptide F288]
- IC50 in SW480 (M) in presence of IGF-1/alone: in presence of IGF-1 [1, 8]: No effect

Molecule: Ac-SFYSCLESLVQGPAEKSRGQWEGCRX [Peptide F369]
- IC50 [1, 9]: > 1e-05 M
- IC50 [1, 10]: > 1e-05 M

Molecule: Ac-VEGROLFYDLLROLLAMRRNG [Peptide F235]
- inhibition of IGF-1R kinase activation by IGF-1 [2]: completely inhibit
- IC50 in SW480 (M) in presence of IGF-1/alone: in presence of IGF-1 [1, 8]: No effect

Molecule: Ac-VGRASGPPENFYDWPGRQLSLQSGEQRR [Peptide F287]
- IC50 in SW480 (M) in presence of IGF-1/alone: in presence of IGF-1 [1, 8]: No effect

Molecule: DMGDVECEDPFYDWFACQVRDTEFDE [Peptide F115]
- IC50 in SW480 (M) in presence of IGF-1/alone: in presence of IGF-1 [1, 8]: No effect

Molecule: EERATPRWRGYEWFDAQVERE [Peptide F211]
- IC50 in SW480 (M) in presence of IGF-1/alone: in presence of IGF-1 [1, 8]: No effect

Molecule: EFGTGYGGDGGGYWSGYEWLAW [Peptide F207]
- IC50 in SW480 (M) in presence of IGF-1/alone: in presence of IGF-1 [1, 8]: No effect
- IC50 [1, 11]: 2e-06 M

Molecule: EFLTRLLERLGLSWERGEAGGPYAQAE [Peptide F175]
- IC50 in SW480 (M) in presence of IGF-1/alone: in presence of IGF-1 [1, 8]: No effect

Molecule: EFSGFCMGLERLSOVSLGYCGAGOGGE [Peptide F169]
- IC50 [1, 11]: 2e-06 M

Molecule: EGLLFCKQLFTLAGLQPEAGCVSSSRE [Peptide F165]
- IC50 in SW480 (M) in presence of IGF-1/alone: in presence of IGF-1 [1, 8]: No effect

Molecule: EGRVDDAFYENFERQLGE [Peptide F213]
- IC50 in SW480 (M) in presence of IGF-1/alone: in presence of IGF-1 [1, 8]: No effect
- IC50 [1, 11]: 2e-06 M

Molecule: EIQRDCQGRPCGDAANFYDWFVQQDSE [Peptide F268]
- IC50 in SW480 (M) in presence of IGF-1/alone: in presence of IGF-1 [1, 8]: No effect

Molecule: EISFRCQLFVLAGMHPCPVDVGGEGFE [Peptide F170]
- IC50 in SW480 (M) in presence of IGF-1/alone: in presence of IGF-1 [1, 8]: No effect

Molecule: ELQGFCELLATVTGVTGLGCLDYQPIE [Peptide F202]
- IC50 in SW480 (M) in presence of IGF-1/alone: in presence of IGF-1 [1, 8]: No effect
- IC50 [1, 11]: > 1e-05 M
- IC50 in SW480 (M) in presence of IGF-1/alone: alone ([1]; second value of the cell: concentration needed to inhibit basal level in 0.5% FCS): no effect

Molecule: ELSFACLLSQLSGVVLPDCLLGEDE [Peptide F201]
- IC50 in SW480 (M) in presence of IGF-1/alone: in presence of IGF-1 [1, 8]: No effect

Molecule: ENRSGELWEGYGWFNMQVRGE [Peptide F212]
- IC50 in SW480 (M) in presence of IGF-1/alone: in presence of IGF-1 [1, 8]: No effect

Molecule: EVDRDCQARPCGDAANFYDWFGQQGTE [Peptide F269]
- IC50 [1, 12]: > 1e-05 M
- IC50 [1, 11]: 5e-07 M

Molecule: EVTSAGQWEGYEWFLGALHAE [Peptide F210]
- IC50 in SW480 (M) in presence of IGF-1/alone: in presence of IGF-1 [1, 8]: No effect

Molecule: FFYRCLSRLLGGOLGSRLGLSCIGD [Peptide F139]
- IC50 in SW480 (M) in presence of IGF-1/alone: in presence of IGF-1 [1, 8]: Antagonistic

Molecule: GIISQSCPESFYDWFAGQVSDPWWCW-Lig [Peptide F116]
- IC50 in SW480 (M) in presence of IGF-1/alone: in presence of IGF-1 [1, 8]: No effect

Molecule: GSLDESFYDWFERQLGKK-Lig [Peptide F118]
- IC50 in SW480 (M) in presence of IGF-1/alone: in presence of IGF-1 [1, 8]: No effect

Molecule: GSLDESFYRWFERQLEGGSGGSGLEQERAGTWCENSGRGCLH [Peptide F156]
- IC50 in SW480 (M) in presence of IGF-1/alone: in presence of IGF-1 [1, 8]: No effect

Molecule: GVRAMSFYDALVSVLGLGPSG [Peptide F157]
- IC50 in SW480 (M) in presence of IGF-1/alone: in presence of IGF-1 [1, 8]: No effect

Molecule: NFYGCLLDLSLGVPSFGWRRRCITA [Peptide F408]
- Activity [3]: Antagonist

Molecule: QFYGCLLDLSLGVPSPGWRRRCITA [Peptide F393]
- IC50 ([1]; read-out: IC50, inhibition of IGF-1 (10 nM)-induced proliferation of SW480 cells, experiment 13262-027): 1e-06 M
- IC50 ([1]; read-out: IC50, inhibition of IGF-1 (10 nM)-induced proliferation of SW480 cells, experiment 13262-029): 1e-06 M

Molecule: RQWDCRGRPCGDAESFYEWFDQQRS [Peptide F264]
- IC50 [1, 12]: > 1e-05 M
- IC50 [1, 11]: > 1e-05 M

Molecule: SAAQLFFQESFYDWFLRQVAESSQPN [Peptide F162]
- IC50 in SW480 (M) in presence of IGF-1/alone: in presence of IGF-1 [1, 8]: No effect

Molecule: SACQFDCHENFYDWFAROVSGOAAYG [Peptide F161]
- IC50 in SW480 (M) in presence of IGF-1/alone: in presence of IGF-1 [1, 8]: No effect

Molecule: SFYDCLLDLSIGGPSSDWRRRCITA [Peptide F441]
- Activity [3]: Antagonist

Molecule: SFYSCLESLVAGPAEKSRGQWEGCRK [Peptide F259]
- inhibition of IGF-1R kinase activation by IGF-1 [2]: completely inhibit
- IC50 [1, 11]: 2e-06 M

Molecule: SFYSCLESLVKRPTERSRGQWVGCR [Peptide F320]
- IC50 in SW480 (M) in presence of IGF-1/alone: in presence of IGF-1 [1, 8]: No effect
- IC50 [4]: 1000 nM
- IC50 [5]: 1000 nM
- IC50 [6]: 2000 nM and > 1000 nM
- IC50 [7]: > 2000 nM

Molecule: SFYSCLESLVNGGAERSEGOWEGCR [Peptide F113]
- IC50 [1, 9]: > 1e-05 M
- IC50 [1, 10]: > 1e-05 M

Molecule: SFYSCLESLVNGPAEKSRGQWDGCR [Peptide F249]
- IC50 [1, 12]: > 1e-05 M
- IC50 [1, 11]: > 1e-05 M

Molecule: SFYSCLESLVTGPAEKSRGQWEGCRK [Peptide F292]
- IC50 [1, 12]: 1e-06 M
- IC50 [1, 11]: 1e-07 M

Molecule: SFYSCLGSLLTGAPQPIRGAWDRCR [Peptide F144]
- IC50 in SW480 (M) in presence of IGF-1/alone: in presence of IGF-1 [1, 8]: No effect

Molecule: VEGRGLFYDLLRQLLARRQNG [Peptide F158]
- IC50 in SW480 (M) in presence of IGF-1/alone: in presence of IGF-1 [1, 8]: No effect

Molecule: VQDDCRGRPCGDADSFYEWFDQQAS [Peptide F263]
- IC50 [1, 12]: > 1e-06 M
- IC50 [1, 11]: > 1e-06 M
